Patent publication US12419937B2, “High concentration alpha-glucosidase compositions for the treatment of Pompe disease” (Amicus Therapeutics, Inc., priority 2012, dated 2025)

Key:
[1] = target: T1, recombinant human GAA (Myozyme®) (Homo sapiens, UniProt P10253); test: SYPRO Orange thermal stability assay (heat-induced denaturation); assay type: physicochemical; details: pH 7.4; 100 μM 1-DNJ-HCl; vs Myozyme® alone
T1 construct: purchased Genzyme Corp
Source text: The thermal stability assay utilizes heat to induce protein denaturation, which is monitored using a SYPRO Orange dye that fluoresces upon binding to hydrophobic amino acids (which are not exposed in a folded protein).
FIG. 5 depicts the results of a thermal stability assay that utilizes heat to induce protein denaturation, which is monitored using a SYPRO Orange dye that fluoresces upon binding to hydrophobic amino acids (which are not exposed in a folded protein).
Denaturation is monitored using a SYPRO Orange dye that fluoresces upon binding to hydrophobic amino acids (which are not exposed in a folded protein).
The thermal stability was performed at pH 7.4 for two formulations, which corresponds to the pH of the ER.

[2] = target: T1, recombinant human GAA (Myozyme®); test: Residual GAA enzyme activity in buffer at 37° C. (4-MU-α-glucose); assay type: biochemical; details: 50 μM 1-DNJ, plasma pH (7.4), 24 hours
Protocol: GAA activity was evaluated to assess the ability of an ASSC of GAA to prolong the activity of the rhGAA over time. Myozyme® (45 nM) was incubated in pH 7.4 or pH 5.2 buffer with or without 50 μM 1-DNJ at 37° C. over 24 hours. Samples were assayed for GAA enzyme activity using 4-MU-α-glucose at 0, 3, 6 and 24 hours and the residual GAA activity was expressed as % of initial activity.
Residual GAA activity was determined for four formulations:
Activity was measured, based on the % of initial activity (t=0) over 24 hours. Samples were assayed for GAA enzyme activity based on the hydrolysis of the fluorogenic substrate 4-MU-α-glucose at 0, 3, 6 and 24 hours. The GAA activity was expressed as % of initial activity, i.e. residual activity.

[3] = Aggregation of 25 mg/mL Myozyme® (Example 10); assay type: physicochemical; details: 1 mM DNJ with 25 mg/mL Myozyme®; pH 7.4; 37° C.; 4 weeks; listed as DNJ
Protocol: Aggregation was assessed after a 4 week incubation period.
A liquid formulation comprising DNJ and GAA was prepared by dissolving DNJ in water to achieve a concentration of 10 mM DNJ. GAA was reconstituted in 1.8 ml water, and dialyzed overnight in phosphate buffered-saline (pH 7.4). […] of DNJ (10 mM) was then be added to 400 microliters of GAA, such that the GAA was at a concentration of 25 mg/ml.
25 mg/mL Myozyme® was incubated with or without 1 mM DNJ in phosphate-buffered saline at pH 7.4. Aggregation of Myozyme® was assessed after incubation for 4 weeks at 37° C.

[4] = Circulating rhGAA after subcutaneous Myozyme® with or without DNJ (FIG. 14); assay type: in vivo; details: DNJ co-formulated with 20 mg/kg Myozyme® vs 20 mg/kg Myozyme® without DNJ
[5] = target: T1, recombinant human GAA (Myozyme®); test: SYPRO Orange protein folding monitored over 24 hours at 37° C.; assay type: physicochemical; details: 100 μM 1-DNJ-HCl, plasma pH
Protocol: FIG. 2B depicts a parallel SYPRO Orange thermal stability experiment to determine if the loss of enzyme activity shown in FIG. 2A, particularly the loss of Myozyme® activity at ER pH (7.4), correlates with protein unfolding and denaturation.
In order to determine if loss of initial enzyme activity is correlated to failure to maintain a proper conformation, a SYPRO Orange thermal stability experiment was performed on the samples above as generally described in Example 1. […] Based on this experiment, the % of GAA folded was estimated and plotted in FIG. 2B.

[6] = Circulating half-life and quadriceps uptake of Myozyme® in rats, tail vein (Example 11); assay type: in vivo, Sprague-Dawley rats; details: 30 mg/kg DNJ with 10 mg/kg Myozyme® via tail vein
Protocol: Sprague-Dawley rats were administered 10 mg/kg Myozyme® or 30 mg/kg DNJ mixed with 10 mg/kg Myozyme® via tail vein. GAA activity was measured in plasma and quadriceps tissue. Baseline GAA activity in quadriceps was subtracted (˜16 nmol/mg protein/hr) from the measured GAA following GAA or DNJ and GAA administration.

stability of Myozyme® (heat required to denature) on addition of the ASSC [1]: significantly increased
aggregation of Myozyme® [3]: reduces aggregation
tissue uptake of Myozyme® in quadriceps [6]: increased
SMILES: OC[C@H]1NC[C@H](O)[C@@H](O)[C@@H]1O [1-DNJ, 1-deoxynojirimycin]
effect on loss of GAA enzyme activity [2]: ameliorates the loss of GAA enzyme activity
circulating levels of rhGAA [4]: increased the circulating levels of rhGAA
effect on GAA denaturation and loss of enzyme activity [5]: can prevent GAA denaturation and loss of enzyme activity
